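Cultured in 96-well plates, cells were exposed to test compound for 48 hours across five concentrations. The concentration for 50% growth inhibition is given as GI50. At the TGI there is no net growth.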
Key:
Assay in all cases: DTP human tumour cell line panel, 48 h
MDA-MB-435 = system: MDA-MB-435
T-47D breast = system: T-47D breast
HOP-92 NSCLC = system: HOP-92 NSCLC
OVCAR-3 ovarian = system: OVCAR-3 ovarian
CAKI-1 renal = system: CAKI-1 renal
SNB-75 CNS = system: SNB-75 CNS

Compound	TGI (MDA-MB-435) [µM]	TGI (T-47D breast) [µM]	TGI (HOP-92 NSCLC) [µM]	TGI (OVCAR-3 ovarian) [µM]	TGI (CAKI-1 renal) [µM]	TGI (SNB-75 CNS) [µM]	GI50 (MDA-MB-435) [µM]	GI50 (OVCAR-3 ovarian) [µM]
O=c1c(Cc2ccccc2)c(-c2ccccc2)[nH]n1C1=NCCN1	> 100	> 100	> 100	> 100	> 100	> 100	–	–
Nc1n[nH]c2ccccc12	> 100	> 100	> 100	> 100	> 100	> 100	–	–
Cc1cccc(NC(Nc2cccc(C)c2)=C(C(Cl)=C(Cl)Cl)[N+](=O)[O-])c1	28.7	> 53	–	44.6	35.6	> 68.6	–	–
COC(=O)[C@H]1C=C[C@H](OC2OC(COC(C)=O)C(OC(C)=O)C(OC(C)=O)C2OC(C)=O)n2c(=O)n(-c3ccccc3)c(=O)n21 (stereo partly specified)	16.6	> 28.1	3.9	11.3	2.4	24.9	–	–
COc1cc(OC)c(C2c3cc4c(cc3OC(N3CCOCC3)C2C)OCO4)c(OC)c1 (stereo unspecified)	> 100	> 100	–	> 100	–	93.2	–	–
C/C(=N\Nc1nc2ccccc2s1)c1cccnn1	> 100	–	14.3	> 100	> 100	30.7	–	–
CCOC(=O)c1ccc(C(=O)/C(C(=O)OC(C)(C)C)=C2\CCCN2C)n1C	> 100	> 100	–	> 100	> 100	77.8	–	–
CCN(CC)C(=S)SS(=O)(=O)c1ccc(C)cc1	> 100	> 100	–	> 100	37.3	–	–	–
COC(=O)/C=C\S/C(=C(/c1ccccc1)n1ccc(C(=O)OC)n1)c1ccccc1	> 100	> 100	86.2	–	> 100	24	–	–
NC(=S)N=Nc1c(O)cc(Nc2ccc(Cl)cc2Cl)c2ccccc12	> 100	93.6	52.4	54.4	38.6	78.5	–	–
C[C@@H]1C(=O)CC2(O)[C@@]13C[C@@H](OC(=O)[C@@H]3O)[C@@H](C)[C@@]21COC1=O (stereo partly specified)	> 100	> 100	–	> 100	–	> 100	–	–
COc1cc2c3c(n(C)c(=O)c2cc1OC)-c1cc2c(cc1/C3=C/CCCCBr)OCO2	> 100	> 100	> 100	> 100	> 100	96.1	> 100	> 100
CC(C)(C)OC(=O)c1ccc(NCc2cc(O)ccc2O)cc1	16.1	2.57	3.4	3.9	2.61	18.4	–	–
C=C1CC=CC(C)(C)C1C/C=C(\C)C(O)CBr (stereo unspecified)	> 100	–	> 100	–	54.1	–	–	–
COc1cc(/C=C/c2cc(=O)cc(/C=C/c3ccc(O)c(OC)c3)o2)ccc1O	> 100	> 93.3	> 100	> 100	> 100	> 95	–	–
CCN(C(=O)N[C@H](C(=O)N[C@@H](C)C(=O)OC)C(C)C)c1ccccc1	52.2	> 100	78.6	> 100	> 100	> 100	–	–

Compound	TGI (MDA-MB-435) [µM]	TGI (T-47D breast) [µM]	TGI (HOP-92 NSCLC) [µM]	TGI (OVCAR-3 ovarian) [µM]	TGI (CAKI-1 renal) [µM]	TGI (SNB-75 CNS) [µM]	GI50 (MDA-MB-435) [µM]	GI50 (OVCAR-3 ovarian) [µM]
CCOP(=O)(OCC)c1cc(-c2ccccc2)ccc1N	> 100	–	> 100	> 100	> 100	> 100	–	–
COC(=O)C(CCCCNC(=O)CNC(=O)OCc1ccccc1)NC(=O)C(CCCCNC(=O)CNC(=O)OCc1ccccc1)NC(=O)OCc1ccccc1 (stereo unspecified)	> 100	> 100	–	> 100	> 100	> 100	–	–
Brc1ccc2c(c1)-c1nc3c(cc1CC2)CCc1ccc(Br)cc1-3	> 100	> 100	> 100	> 100	> 100	> 100	–	–
O=c1oc2ccccc2c2nc3ccccc3cc12	> 100	> 100	90.1	–	> 100	–	–	–
COC1OC2COC(C)(C)OC2C2OC(C)(C)OC12 (stereo unspecified)	> 100	> 100	–	> 100	33.1	–	–	–
CC(C)Cc1c(C#N)c(C#N)c(N)n1Cc1ccccc1	> 100	> 100	> 100	> 100	> 100	> 100	–	–
CC/C=C\C/C=C\C/C=C\CCCCCCCC(=O)OC(COC(=O)CCCCCCCCCCCCCCCCC)COC1OC(CO)C(O)C(O)C1O (stereo unspecified)	> 25	> 25	> 25	> 25	> 25	> 25	–	–
COC(=O)C1=C(C(=O)OC)C2(C)CCC(=O)C1O2 (stereo unspecified)	> 10	> 10	–	> 10	> 10	> 10	–	–
COC(=O)c1sc2ncc3c(c2c1N)CC(C)CC3 (stereo unspecified)	> 100	> 100	> 100	> 100	> 100	> 100	–	–
CC1=C(C(=O)NNC(=O)CC#N)CC(C(=O)NNC(=O)CC#N)=C(C)N1	> 100	> 100	> 100	> 100	> 100	> 100	–	–
O=[N+]([O-])c1ccc2nc3c(nc2c1)-c1c2ccccc2cc2cccc-3c12	> 83.9	4.11	58	51.7	> 40.7	–	–	–
CC(C)(C)c1ccc2c(c1)OCc1n[nH]c(n1)COc1cc(C(C)(C)C)ccc1OCCOCCO2	11.5	12.4	14.8	7.47	14.6	19.2	–	–
O=C(CN=C(CN(c1ccccc1)c1ccccc1)Oc1c(Cl)cc(Cl)cc1Cl)n1cnc2ccccc21	> 100	> 100	> 100	> 100	–	> 100	–	–
Cc1ccc(C(=O)c2[nH]c(Nc3cc(C)ccn3)c(C(=S)Nc3ccccc3)c2N)cc1	> 100	> 100	> 100	> 100	> 100	> 100	–	–
O=S1(=O)c2ccccc2NC(=S)N1c1ccccc1	> 100	> 100	45.3	> 100	> 100	48.3	–	–

Reference: PubChem BioAssay (NCI)
